How the values were obtained:
Assay type in all cases: in vivo
Beta vulgaris (BEAVA) = assay: B2 Post-Emergence Efficacy - Test 2; conditions: 15 days after application, 0-100 scale
Method: (§1) Seeds of a variety of test species (see Table B1) were sown in standard soil in pots. After cultivation for 12 days (post-emergence) under controlled conditions in a glasshouse (at 24/18° C. or 20/16° C., at day/night; 16 hours light; 65% humidity), the plants were sprayed with an aqueous spray solution derived from the formulation of the technical active ingredient dissolved in IF50 (see Table B2 for composition) and adjuvant (Genapol X080) was added to the spray solution at a rate of 0.2% v/v.
(§2) After application, the test plants were grown in a glasshouse under controlled conditions (as above) and watered twice daily. Herbicidal activity was evaluated 15 days after application on a 0-100 scale. The results, where 0=no damage to test plant and 100=total kill of test plant are shown below in Tables 8 to 11.

[1] = tested on: Abutilon theophrasti (ABUTH); assay: B2 Post-Emergence Efficacy - Test 2; conditions: 15 days after application, 0-100 scale
Method: as §1, §2

[2] = tested on: Alopecurus myosuroides (ALOMY); assay: B2 Post-Emergence Efficacy - Test 2; conditions: 15 days after application, 0-100 scale
Method: as §1, §2

Zea mays (ZEAMX) = assay: B2 Post-Emergence Efficacy - Test 2; conditions: 15 days after application; for Herbicidal activity ZEAMX: 0-100 scale; for Herbicidal activity on a 0-100 scale, ZEAMX: 0=no damage, 100=total kill
Method: as §1, §2

[3] = tested on: Echinochloa crus galli (ECHCG); assay: B2 Post-Emergence Efficacy - Test 2; conditions: 15 days after application, 0=no damage, 100=total kill
Method: as §1, §2

Hordeum vulgare (HORVW) = assay: B2 Post-Emergence Efficacy - Test 2; conditions: 15 days after application, 0-100 scale
Method: as §1, §2

Glycine max (GLXMA) = assay: B2 Post-Emergence Efficacy - Test 2; conditions: 15 days after application; for Herbicidal activity GLXMA: 0-100 scale; for Herbicidal activity on a 0-100 scale, GLXMA: 0=no damage, 100=total kill
Method: as §1, §2

Bromus tectorum (BROTE) = assay: B2 Post-Emergence Efficacy - Test 2; conditions: 15 days after application, 0-100 scale
Method: as §1, §2

Setaria faberi (SETFA) [4] = assay: B2 Post-Emergence Efficacy - Test 2; conditions: 15 days after application, 0=no damage, 100=total kill
Method: as §1, §2

Eleisine indica (ELEIN) = assay: B2 Post-Emergence Efficacy - Test 2; conditions: 15 days after application, 0=no damage, 100=total kill
Method: as §1, §2

[5] = tested on: Amaranthus retroflexus (AMARE); assay: B2 Post-Emergence Efficacy - Test 2; conditions: 15 days after application, 0-100 scale
Method: as §1, §2

Solanum nigrum (SOLNI) = assay: B1 Post-Emergence Efficacy - Test 1; conditions: 1000 g/ha, after 13 days, five point scale
Method: (§3) Seeds of a variety of test species are sown in standard soil in pots:— Solanum nigrum (SOLNI), Amaranthus retoflexus (AMARE), Setaria faberi (SETFA), Alopecurus myosuroides (ALOMY), Echinochloa crus-galli (ECHCG), Ipomoea hederacea (IPOHE), Lolium perenne (LOLPE). After 8 days cultivation (post-emergence) under controlled conditions in a glasshouse (at 24/16° C., day/night; 14 hours light; 65% humidity), the plants are sprayed with an aqueous spray solution derived from the formulation of the technical active ingredient in acetone/water (50:50) solution containing 0.5% Tween 20 (polyoxyethylene sorbitan monolaurate, CAS RN 9005-64-5). Compounds are applied at 1000 g/ha. The test plants are then grown in a glasshouse under controlled conditions in a glasshouse (at 24/16° C., day/night; 14 hours light; 65% humidity) and watered twice daily. After 13 days, the test is evaluated for the percentage damage caused to the plant. The biological activities are assessed on a five point scale (5=80-100%; 4=60-79%; 3=40-59%; 2=20-39%; 1=0-19%). A blank value in the table is indicative that the compound was not tested on that species.

[6] = tested on: Echinochloa crus-galli (ECHCG); assay: B1 Post-Emergence Efficacy - Test 1; conditions: 1000 g/ha, after 13 days, five point scale
Method: as §3

[7] = tested on: Amaranthus retoflexus (AMARE); assay: B1 Post-Emergence Efficacy - Test 1; conditions: 1000 g/ha, after 13 days, five point scale
Method: as §3

Setaria faberi (SETFA) [8] = assay: B1 Post-Emergence Efficacy - Test 1; conditions: 1000 g/ha, after 13 days, five point scale
Method: as §3

[9] = tested on: Ipomoea hederacea (IPOHE); assay: B1 Post-Emergence Efficacy - Test 1; conditions: 1000 g/ha, after 13 days, five point scale
Method: as §3

Lolium perenne (LOLPE) = assay: B1 Post-Emergence Efficacy - Test 1; conditions: 1000 g/ha, after 13 days, five point scale
Method: as §3

Cc1nn(C)c(=O)c(-c2c(F)ccc(Cl)c2CCc2ccc(F)cc2)c1O [Compound 1.048, 4-[3-chloro-6-fluoro-2-[2-(4-fluorophenyl)ethyl]phenyl]-5-hydroxy-2,6-dimethyl-pyridazin-3-one]
Herbicidal activity BEAVA (Beta vulgaris (BEAVA); 15 g/Ha): 70 | Herbicidal activity BEAVA (Beta vulgaris (BEAVA); 30 g/Ha): 80 | Herbicidal activity BEAVA (Beta vulgaris (BEAVA); 60 g/Ha): 80 | Herbicidal activity BEAVA (Beta vulgaris (BEAVA); 125 g/Ha): 90 | Herbicidal activity BEAVA (Beta vulgaris (BEAVA); 250 g/Ha): 90 | Herbicidal activity BEAVA (Beta vulgaris (BEAVA); 500 g/Ha): 90 | Herbicidal activity ABUTH ([1]; 15 g/Ha): 60 | Herbicidal activity ABUTH ([1]; 30 g/Ha): 80 | Herbicidal activity ABUTH ([1]; 60 g/Ha): 90 | Herbicidal activity ABUTH ([1]; 125 g/Ha): 90 | Herbicidal activity ABUTH ([1]; 250 g/Ha): 90 | Herbicidal activity ABUTH ([1]; 500 g/Ha): 100 | Herbicidal activity ALOMY ([2]; 15 g/Ha): 20 | Herbicidal activity ALOMY ([2]; 30 g/Ha): 30 | Herbicidal activity ALOMY ([2]; 60 g/Ha): 70 | Herbicidal activity ALOMY ([2]; 125 g/Ha): 80 | Herbicidal activity ALOMY ([2]; 250 g/Ha): 80 | Herbicidal activity ALOMY ([2]; 500 g/Ha): 90 | Herbicidal activity ZEAMX (Zea mays (ZEAMX); 15 g/Ha): 0 | Herbicidal activity on a 0-100 scale, ZEAMX (Zea mays (ZEAMX); 15 g/Ha): 0 | Herbicidal activity ZEAMX (Zea mays (ZEAMX); 30 g/Ha): 10 | Herbicidal activity on a 0-100 scale, ZEAMX (Zea mays (ZEAMX); 30 g/Ha): 10 | Herbicidal activity ZEAMX (Zea mays (ZEAMX); 60 g/Ha): 50 | Herbicidal activity on a 0-100 scale, ZEAMX (Zea mays (ZEAMX); 60 g/Ha): 50 | Herbicidal activity ZEAMX (Zea mays (ZEAMX); 125 g/Ha): 50 | Herbicidal activity on a 0-100 scale, ZEAMX (Zea mays (ZEAMX); 125 g/Ha): 50 | Herbicidal activity ZEAMX (Zea mays (ZEAMX); 250 g/Ha): 70 | Herbicidal activity on a 0-100 scale, ZEAMX (Zea mays (ZEAMX); 250 g/Ha): 70 | Herbicidal activity ZEAMX (Zea mays (ZEAMX); 500 g/Ha): 100 | Herbicidal activity on a 0-100 scale, ZEAMX (Zea mays (ZEAMX); 500 g/Ha): 100 | Herbicidal activity on a 0-100 scale, ECHCG ([3]; 15 g/Ha): 60 | Herbicidal activity on a 0-100 scale, ECHCG ([3]; 30 g/Ha): 80 | Herbicidal activity on a 0-100 scale, ECHCG ([3]; 60 g/Ha): 80 | Herbicidal activity on a 0-100 scale, ECHCG ([3]; 125 g/Ha): 90 | Herbicidal activity on a 0-100 scale, ECHCG ([3]; 250 g/Ha): 90 | Herbicidal activity on a 0-100 scale, ECHCG ([3]; 500 g/Ha): 100 | Herbicidal activity HORVW (Hordeum vulgare (HORVW); 15 g/Ha): 10 | Herbicidal activity HORVW (Hordeum vulgare (HORVW); 30 g/Ha): 10 | Herbicidal activity HORVW (Hordeum vulgare (HORVW); 60 g/Ha): 10 | Herbicidal activity HORVW (Hordeum vulgare (HORVW); 125 g/Ha): 40 | Herbicidal activity HORVW (Hordeum vulgare (HORVW); 250 g/Ha): 40 | Herbicidal activity HORVW (Hordeum vulgare (HORVW); 500 g/Ha): 80 | Herbicidal activity GLXMA (Glycine max (GLXMA); 15 g/Ha): 70 | Herbicidal activity on a 0-100 scale, GLXMA (Glycine max (GLXMA); 15 g/Ha): 70 | Herbicidal activity GLXMA (Glycine max (GLXMA); 30 g/Ha): 80 | Herbicidal activity on a 0-100 scale, GLXMA (Glycine max (GLXMA); 30 g/Ha): 80 | Herbicidal activity GLXMA (Glycine max (GLXMA); 60 g/Ha): 90 | Herbicidal activity on a 0-100 scale, GLXMA (Glycine max (GLXMA); 60 g/Ha): 90 | Herbicidal activity GLXMA (Glycine max (GLXMA); 125 g/Ha): 90 | Herbicidal activity on a 0-100 scale, GLXMA (Glycine max (GLXMA); 125 g/Ha): 90 | Herbicidal activity GLXMA (Glycine max (GLXMA); 250 g/Ha): 90 | Herbicidal activity on a 0-100 scale, GLXMA (Glycine max (GLXMA); 250 g/Ha): 90 | Herbicidal activity GLXMA (Glycine max (GLXMA); 500 g/Ha): 100 | Herbicidal activity on a 0-100 scale, GLXMA (Glycine max (GLXMA); 500 g/Ha): 100 | Herbicidal activity BROTE (Bromus tectorum (BROTE); 15 g/Ha): 0 | Herbicidal activity BROTE (Bromus tectorum (BROTE); 30 g/Ha): 10 | Herbicidal activity BROTE (Bromus tectorum (BROTE); 60 g/Ha): 20 | Herbicidal activity BROTE (Bromus tectorum (BROTE); 125 g/Ha): 50 | Herbicidal activity BROTE (Bromus tectorum (BROTE); 250 g/Ha): 60 | Herbicidal activity BROTE (Bromus tectorum (BROTE); 500 g/Ha): 70 | Herbicidal activity on a 0-100 scale, SETFA (Setaria faberi (SETFA) [4]; 15 g/Ha): 0 | Herbicidal activity on a 0-100 scale, SETFA (Setaria faberi (SETFA) [4]; 30 g/Ha): 40 | Herbicidal activity on a 0-100 scale, SETFA (Setaria faberi (SETFA) [4]; 60 g/Ha): 40 | Herbicidal activity on a 0-100 scale, SETFA (Setaria faberi (SETFA) [4]; 125 g/Ha): 70 | Herbicidal activity on a 0-100 scale, SETFA (Setaria faberi (SETFA) [4]; 250 g/Ha): 80 | Herbicidal activity on a 0-100 scale, SETFA (Setaria faberi (SETFA) [4]; 500 g/Ha): 100 | Herbicidal activity on a 0-100 scale, ELEIN (Eleisine indica (ELEIN); 15 g/Ha): 0 | Herbicidal activity on a 0-100 scale, ELEIN (Eleisine indica (ELEIN); 30 g/Ha): 50 | Herbicidal activity on a 0-100 scale, ELEIN (Eleisine indica (ELEIN); 60 g/Ha): 60 | Herbicidal activity on a 0-100 scale, ELEIN (Eleisine indica (ELEIN); 125 g/Ha): 60 | Herbicidal activity on a 0-100 scale, ELEIN (Eleisine indica (ELEIN); 250 g/Ha): 80 | Herbicidal activity on a 0-100 scale, ELEIN (Eleisine indica (ELEIN); 500 g/Ha): 80 | Herbicidal activity AMARE ([5]; 15 g/Ha): 60 | Herbicidal activity AMARE ([5]; 30 g/Ha): 80 | Herbicidal activity AMARE ([5]; 60 g/Ha): 90 | Herbicidal activity AMARE ([5]; 125 g/Ha): 90 | Herbicidal activity AMARE ([5]; 250 g/Ha): 100 | Herbicidal activity AMARE ([5]; 500 g/Ha): 100 | percentage damage caused to the plant, SOLNI (Solanum nigrum (SOLNI)): 5 (5=80-100%) | percentage damage caused to the plant, ECHCG [6]: 5 (5=80-100%) | percentage damage caused to the plant, AMARE [7]: 5 (5=80-100%) | percentage damage caused to the plant, SETFA (Setaria faberi (SETFA) [8]): 5 (5=80-100%) | percentage damage caused to the plant, IPOHE [9]: 5 (5=80-100%) | percentage damage caused to the plant, LOLPE (Lolium perenne (LOLPE)): 5 (5=80-100%)
